Measured values reported in patent US7335495B2, “Process for the isolation of pharmaceutical compound cyclosporin a from fungus fusarium nivale” (Council of Scientific and Industrial Research, priority 2002, dated 2008).

Key:
Cryptococcus neoformans = experiment: MIC by disk diffusion method, Cryptococcus neoformans; assay type: cell-based; settings: Cryoticiecus Neoformans; disks of 50, 25, 12.5, 6.25 and 3.12 μg; 42-120 hrs at room temperature
From the text: (§1) Czapek Malt Agar (Himedia laboratories Ltd.) was used for culturing Tricholphytos mentagrophytes T. tonsurans, T. violaceum, Aspergillus fresnil and A niger, A. japonicus. Mucological Agar (Himedia Laboratories Ltd was used for Cryptocaccus neoformans and Candida sp.
(§2) Pathogeiic fungal strains of yeast and filamentous fungi (Identified and gifted by Dr. Savio from Goa Medical College, Bamoblim) were used for the test. Strains of Aspergillus were isolated from the infected wheat bread with sterile needles; fungal material was surface sterilized using 0.5% sodium hypochlorite for 2-3 minutes and then washed with small brush in sterile distilled water. This Aspergillus species was described earlier as food spoilage (Bhosale et. Al., 1999). […]
(§3) Innocula were adjusted to 50 μl of Cryptococcus neoformans, Candida sp., Trichophyrou tonsurans, T. violaceum and T. mentagrophytes, Aspergillus fresenil, A. niger, A. japonicus and spread on the appropriate plates, excess moisture was allowed to be absorbed for 10 minutes before applying on disks. […] Test plates were incubated for 42-120 hrs. at room temperature to obtain maximum growth and MIC was determined as lowest concentration of compound and antifungal agents resulting in a cleas zone of growth inhibition. […]

Candida sp. = experiment: MIC by disk diffusion method, Candida sp.; assay type: cell-based; settings: disks of 50, 25, 12.5, 6.25 and 3.12 μg, 42-120 hrs at room temperature
From the text: as §1, §2, §3

Aspergillus fresenii = experiment: MIC by disk diffusion method, Aspergillus fresenii; assay type: cell-based; settings: disks of 50, 25, 12.5, 6.25 and 3.12 μg, 42-120 hrs at room temperature
From the text: as §1, §2, §3

A. japonicus = experiment: MIC by disk diffusion method, A. japonicus; assay type: cell-based, Aspergillus japonicus; settings: disks of 50, 25, 12.5, 6.25 and 3.12 μg, 42-120 hrs at room temperature
From the text: as §1, §2, §3

A. niger = experiment: MIC by disk diffusion method, A. niger; assay type: cell-based, Aspergillus niger; settings: disks of 50, 25, 12.5, 6.25 and 3.12 μg, 42-120 hrs at room temperature
From the text: as §1, §2, §3

[1] = tested on: Trichophyton mentagrophytes; experiment: MIC by disk diffusion method, Trichophyton mentagrophytes; assay type: cell-based; settings: disks of 50, 25, 12.5, 6.25 and 3.12 μg, 42-120 hrs at room temperature
From the text: as §1, §2, §3

T. tonsurans = experiment: MIC by disk diffusion method, T. tonsurans; assay type: cell-based, Trichophyton tonsurans; settings: disks of 50, 25, 12.5, 6.25 and 3.12 μg, 42-120 hrs at room temperature
From the text: as §1, §2, §3

T. violaceum = experiment: MIC by disk diffusion method, T. violaceum; assay type: cell-based, Trichophyton violaceum; settings: disks of 50, 25, 12.5, 6.25 and 3.12 μg, 42-120 hrs at room temperature
From the text: as §1, §2, §3

Fusarium sp. = experiment: MIC by disk diffusion method, Fusarium sp.; assay type: cell-based; settings: disks of 50, 25, 12.5, 6.25 and 3.12 μg, 42-120 hrs at room temperature

Compound	MIC, Disk Diffusion Method (Cryptococcus neoformans)	MIC, Disk Diffusion Method (Candida sp.)	MIC, Disk Diffusion Method (Aspergillus fresenii)	MIC, Disk Diffusion Method (A. japonicus)	MIC, Disk Diffusion Method (A. niger)	MIC, Disk Diffusion Method [1]	MIC, Disk Diffusion Method (T. tonsurans)	MIC, Disk Diffusion Method (T. violaceum)	MIC, Disk Diffusion Method (Fusarium sp.)
C[C@@H]1[C@H](O)[C@@H](C)/C=C/C=C/CC/C=C/C=C/C=C/C=C/C(O[C@H]2O[C@H](C)[C@@H](O)[C@H](N)[C@@H]2O)CC2O[C@](O)(CC(O)C(O)CCC(O)CC(O)CC(O)CC(=O)O[C@H]1C)CC(O)C2C(=O)O (some centres unmarked) [Nystatin]	3.12-6.25 μg/disc^−1	3.12-6.25 μg/disc^−1	–	–	–	–	–	–	–
C[C@@H]1[C@H](O)[C@@H](C)/C=C/C=C/C=C/C=C/C=C/C=C/C=C/[C@H](O[C@@H]2O[C@H](C)[C@@H](O)[C@H](N)[C@@H]2O)C[C@@H]2O[C@](O)(C[C@@H](O)C[C@@H](O)[C@H](O)CC[C@@H](O)C[C@@H](O)CC(=O)O[C@H]1C)C[C@H](O)[C@H]2C(=O)O [Amphotericin B]	3.12-6.25 μg/disc^−1	3.12-6.25 μg/disc^−1	6.25-12.5 μg/disc^−1	6.25-12.5 μg/disc^−1	6.25-12.5 μg/disc^−1	3.12-6.25 μg/disc^−1	6.25-12.5 μg/disc^−1	6.25-12.5 μg/disc^−1	12.5-25 μg/disc^−1
